The results in this text go back to ChEMBL document CHEMBL5465560, “Selectivity Literature for EUbOPEN Chemogenomic Library” (2024).

The target in assay [1] is Tyrosine-protein kinase CSK (Homo sapiens) (UniProt P41240). The assay is described as follows: Selectivity interaction (Kinase panel (KiNativ target engagement assay in Jurkat cells)) EUB0001635a CSK. It is filed as cell-based. The settings on record: at 1 µM.
Assay [2] has as its target T1, Cytoplasmic tyrosine-protein kinase BMX (Homo sapiens) (UniProt P51813).
T1 sequence (whole entry): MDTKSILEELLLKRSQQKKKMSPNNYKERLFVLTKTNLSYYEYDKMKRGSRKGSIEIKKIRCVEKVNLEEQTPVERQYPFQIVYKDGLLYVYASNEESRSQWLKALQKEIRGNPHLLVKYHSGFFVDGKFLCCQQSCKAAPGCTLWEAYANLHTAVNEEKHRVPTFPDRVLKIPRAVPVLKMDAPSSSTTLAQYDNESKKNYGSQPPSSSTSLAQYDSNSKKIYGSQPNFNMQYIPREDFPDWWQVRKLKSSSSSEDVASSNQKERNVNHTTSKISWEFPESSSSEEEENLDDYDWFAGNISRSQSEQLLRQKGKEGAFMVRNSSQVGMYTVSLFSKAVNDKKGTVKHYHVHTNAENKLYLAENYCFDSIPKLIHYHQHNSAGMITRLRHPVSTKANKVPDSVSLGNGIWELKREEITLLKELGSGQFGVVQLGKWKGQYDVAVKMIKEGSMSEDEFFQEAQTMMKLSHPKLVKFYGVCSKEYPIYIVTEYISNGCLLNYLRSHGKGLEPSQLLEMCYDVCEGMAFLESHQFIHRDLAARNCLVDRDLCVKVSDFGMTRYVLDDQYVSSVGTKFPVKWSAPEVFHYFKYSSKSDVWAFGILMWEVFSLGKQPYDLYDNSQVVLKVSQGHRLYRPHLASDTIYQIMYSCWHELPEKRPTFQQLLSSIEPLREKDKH
The settings on record: at 10 µM.

Assay [3] has as its target Serine/threonine-protein kinase N2 (Homo sapiens, UniProt Q16513). Description: Selectivity interaction (KinomeScan (DiscoverX)) EUB0000666a PKN2. The settings on record: at 10 µM.
Assay [4] concerns the target Ephrin type-A receptor 7 (Homo sapiens) (UniProt Q15375). Description: Selectivity interaction (Kinase panel (DSF assay)) EUB0001558a EPHA7.
Assay [5] deals with Serine/threonine-protein kinase Nek7 (Homo sapiens) (UniProt Q8TDX7). Description: Selectivity interaction (KinomeScan (DiscoverX)) EUB0000229b NEK7. To be noted: at 10 µM.
Assay [6] concerns the target Tyrosine-protein kinase SYK (Homo sapiens, UniProt P43405). The assay is described as follows: Selectivity interaction (ActivX KiNativ screen (ex vivo kinase selectivity in human PBMCs)) EUB0001619a SYK. It is filed as cell-based. The settings on record: PBMC, at 1 µM.
The target in assay [7] is Serine/threonine-protein kinase tousled-like 2 (Homo sapiens) (UniProt Q86UE8). The assay is described as follows: Selectivity interaction (ActivX KiNativ screen (ex vivo kinase selectivity in human PBMCs)) EUB0001619a TLK2. It is filed as cell-based. The settings on record: PBMC, at 1 µM.
Assay [8] addresses Ephrin type-B receptor 4 (Homo sapiens, UniProt P54760). Description: Selectivity interaction (Kinase panel (33PanQinase(R) Activity Assay)) EUB0000877a EPHB4.
In assay [9] the target is RAC-beta serine/threonine-protein kinase (Homo sapiens) (UniProt P31751). The assay is described as follows: Selectivity interaction (Kinase panel (Invitrogen)) EUB0000639a AKT2. The settings on record: at 200 nM.
In assay [10] the target is T2, Dual specificity mitogen-activated protein kinase kinase 3 (Homo sapiens) (UniProt P46734).
T2 sequence (whole entry): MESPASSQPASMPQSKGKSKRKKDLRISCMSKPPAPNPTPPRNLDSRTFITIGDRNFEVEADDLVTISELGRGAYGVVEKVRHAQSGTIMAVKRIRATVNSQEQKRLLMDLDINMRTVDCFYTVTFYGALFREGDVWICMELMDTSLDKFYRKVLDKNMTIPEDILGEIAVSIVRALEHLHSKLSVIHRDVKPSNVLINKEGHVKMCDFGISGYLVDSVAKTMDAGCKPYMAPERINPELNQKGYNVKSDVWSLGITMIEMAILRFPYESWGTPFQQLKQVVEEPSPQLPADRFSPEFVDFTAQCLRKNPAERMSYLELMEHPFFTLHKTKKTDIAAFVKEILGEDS
The settings on record: at 10 µM.

Assay [11] has as its target Sodium-dependent serotonin transporter (Homo sapiens, UniProt P31645). Description: Selectivity interaction (Eurofins CEREP Diversity Profile (receptors and ion channels)) EUB0000279b SLC6A4. The settings on record: at 10 µM.
In assay [12] the target is Protein arginine N-methyltransferase 5 (Homo sapiens, UniProt O14744). The assay is described as follows: Selectivity interaction (Methyltransferase screen (radiometric assays, panel of 8 PRMTs, 21 protein lysine methyltransferases, 3 DNA methyltransferases, and one RNA methyltransferase)) EUB0000272b PRMT5.
Sequence of Protein arginine N-methyltransferase 5 (O14744 whole entry): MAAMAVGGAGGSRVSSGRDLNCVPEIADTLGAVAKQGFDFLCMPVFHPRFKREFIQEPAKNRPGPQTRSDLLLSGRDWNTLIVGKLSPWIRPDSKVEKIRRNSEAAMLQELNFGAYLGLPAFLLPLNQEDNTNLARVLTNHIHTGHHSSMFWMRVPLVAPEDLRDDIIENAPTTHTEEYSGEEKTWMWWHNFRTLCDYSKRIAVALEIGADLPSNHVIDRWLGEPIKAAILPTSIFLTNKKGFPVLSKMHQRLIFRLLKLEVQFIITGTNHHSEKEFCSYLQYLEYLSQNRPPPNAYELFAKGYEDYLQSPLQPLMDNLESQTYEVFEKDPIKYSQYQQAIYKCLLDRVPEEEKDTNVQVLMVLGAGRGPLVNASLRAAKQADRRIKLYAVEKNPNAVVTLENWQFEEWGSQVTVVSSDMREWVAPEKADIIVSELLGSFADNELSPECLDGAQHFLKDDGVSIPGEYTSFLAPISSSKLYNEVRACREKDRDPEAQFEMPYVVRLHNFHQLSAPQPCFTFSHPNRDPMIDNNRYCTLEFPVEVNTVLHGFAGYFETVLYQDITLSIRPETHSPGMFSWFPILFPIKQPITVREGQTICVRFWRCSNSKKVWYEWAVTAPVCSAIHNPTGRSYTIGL

Sequence of Tyrosine-protein kinase CSK (Homo sapiens) (P41240 2-450 limits assumed): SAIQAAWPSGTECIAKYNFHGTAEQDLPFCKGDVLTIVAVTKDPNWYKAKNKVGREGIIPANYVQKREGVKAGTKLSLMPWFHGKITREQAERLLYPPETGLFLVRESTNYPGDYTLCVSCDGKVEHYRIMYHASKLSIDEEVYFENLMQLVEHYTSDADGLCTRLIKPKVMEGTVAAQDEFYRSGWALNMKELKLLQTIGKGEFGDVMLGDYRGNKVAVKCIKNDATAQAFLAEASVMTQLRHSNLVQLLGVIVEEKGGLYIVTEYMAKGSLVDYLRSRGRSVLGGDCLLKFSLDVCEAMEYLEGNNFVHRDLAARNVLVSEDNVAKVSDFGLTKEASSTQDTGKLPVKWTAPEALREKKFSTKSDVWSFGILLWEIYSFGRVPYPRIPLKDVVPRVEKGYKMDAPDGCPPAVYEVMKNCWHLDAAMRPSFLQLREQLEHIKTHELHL
Sequence of RAC-beta serine/threonine-protein kinase (Homo sapiens) (P31751 whole entry): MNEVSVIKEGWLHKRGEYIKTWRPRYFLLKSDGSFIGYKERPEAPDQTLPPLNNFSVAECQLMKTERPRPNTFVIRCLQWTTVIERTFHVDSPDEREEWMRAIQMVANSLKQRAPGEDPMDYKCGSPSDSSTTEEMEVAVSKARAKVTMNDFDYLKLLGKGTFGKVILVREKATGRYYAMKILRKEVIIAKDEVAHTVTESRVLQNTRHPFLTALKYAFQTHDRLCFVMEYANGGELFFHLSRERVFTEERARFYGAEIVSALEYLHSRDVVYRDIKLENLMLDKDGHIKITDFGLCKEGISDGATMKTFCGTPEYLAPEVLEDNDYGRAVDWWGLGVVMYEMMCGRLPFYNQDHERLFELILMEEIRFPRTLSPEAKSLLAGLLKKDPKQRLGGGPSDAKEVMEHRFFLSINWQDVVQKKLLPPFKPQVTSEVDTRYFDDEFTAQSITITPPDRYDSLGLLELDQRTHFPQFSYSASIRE
Sequence of Ephrin type-A receptor 7 (Homo sapiens) (Q15375 28-998 limits assumed): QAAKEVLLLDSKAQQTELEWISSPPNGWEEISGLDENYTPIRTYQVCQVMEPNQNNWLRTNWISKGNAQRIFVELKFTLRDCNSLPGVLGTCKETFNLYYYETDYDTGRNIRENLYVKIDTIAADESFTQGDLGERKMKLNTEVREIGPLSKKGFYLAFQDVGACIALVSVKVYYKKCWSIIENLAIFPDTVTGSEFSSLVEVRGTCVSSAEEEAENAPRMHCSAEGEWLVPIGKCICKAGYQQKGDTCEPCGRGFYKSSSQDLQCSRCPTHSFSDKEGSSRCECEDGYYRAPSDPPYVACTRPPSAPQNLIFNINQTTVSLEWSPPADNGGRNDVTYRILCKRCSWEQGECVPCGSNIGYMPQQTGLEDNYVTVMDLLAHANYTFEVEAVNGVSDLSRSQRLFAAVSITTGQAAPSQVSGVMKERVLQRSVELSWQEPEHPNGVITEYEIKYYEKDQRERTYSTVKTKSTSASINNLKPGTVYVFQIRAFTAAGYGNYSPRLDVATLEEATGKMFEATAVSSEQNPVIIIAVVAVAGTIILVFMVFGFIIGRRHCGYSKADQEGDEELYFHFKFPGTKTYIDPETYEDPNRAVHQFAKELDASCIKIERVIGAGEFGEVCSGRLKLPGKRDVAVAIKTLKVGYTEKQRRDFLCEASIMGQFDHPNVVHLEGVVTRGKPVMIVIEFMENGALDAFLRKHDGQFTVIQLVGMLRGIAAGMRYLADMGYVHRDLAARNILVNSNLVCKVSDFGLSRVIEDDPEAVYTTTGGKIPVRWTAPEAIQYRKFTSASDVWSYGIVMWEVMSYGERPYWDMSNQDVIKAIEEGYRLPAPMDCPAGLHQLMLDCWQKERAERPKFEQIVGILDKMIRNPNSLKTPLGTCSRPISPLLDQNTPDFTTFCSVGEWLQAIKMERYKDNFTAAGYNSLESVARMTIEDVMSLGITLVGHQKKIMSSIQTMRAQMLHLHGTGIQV
Sequence of Sodium-dependent serotonin transporter (P31645 whole entry, looked up): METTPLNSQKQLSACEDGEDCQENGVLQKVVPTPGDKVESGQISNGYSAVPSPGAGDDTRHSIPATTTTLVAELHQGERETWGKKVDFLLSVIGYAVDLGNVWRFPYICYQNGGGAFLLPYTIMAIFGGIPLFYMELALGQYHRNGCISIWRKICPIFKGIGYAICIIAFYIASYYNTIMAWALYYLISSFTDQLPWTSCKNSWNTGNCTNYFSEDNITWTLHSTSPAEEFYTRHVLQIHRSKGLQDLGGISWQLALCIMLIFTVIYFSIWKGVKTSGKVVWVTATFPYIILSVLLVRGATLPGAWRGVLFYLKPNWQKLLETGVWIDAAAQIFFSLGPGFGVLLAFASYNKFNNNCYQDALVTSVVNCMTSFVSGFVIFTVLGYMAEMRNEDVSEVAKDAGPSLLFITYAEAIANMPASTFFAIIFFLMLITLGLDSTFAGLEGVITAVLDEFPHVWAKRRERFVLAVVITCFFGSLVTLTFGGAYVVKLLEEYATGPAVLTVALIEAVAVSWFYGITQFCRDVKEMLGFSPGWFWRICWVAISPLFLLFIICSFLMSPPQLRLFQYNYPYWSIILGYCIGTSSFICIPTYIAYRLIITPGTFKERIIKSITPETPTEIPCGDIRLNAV
Sequence of Ephrin type-B receptor 4 (P54760 whole entry): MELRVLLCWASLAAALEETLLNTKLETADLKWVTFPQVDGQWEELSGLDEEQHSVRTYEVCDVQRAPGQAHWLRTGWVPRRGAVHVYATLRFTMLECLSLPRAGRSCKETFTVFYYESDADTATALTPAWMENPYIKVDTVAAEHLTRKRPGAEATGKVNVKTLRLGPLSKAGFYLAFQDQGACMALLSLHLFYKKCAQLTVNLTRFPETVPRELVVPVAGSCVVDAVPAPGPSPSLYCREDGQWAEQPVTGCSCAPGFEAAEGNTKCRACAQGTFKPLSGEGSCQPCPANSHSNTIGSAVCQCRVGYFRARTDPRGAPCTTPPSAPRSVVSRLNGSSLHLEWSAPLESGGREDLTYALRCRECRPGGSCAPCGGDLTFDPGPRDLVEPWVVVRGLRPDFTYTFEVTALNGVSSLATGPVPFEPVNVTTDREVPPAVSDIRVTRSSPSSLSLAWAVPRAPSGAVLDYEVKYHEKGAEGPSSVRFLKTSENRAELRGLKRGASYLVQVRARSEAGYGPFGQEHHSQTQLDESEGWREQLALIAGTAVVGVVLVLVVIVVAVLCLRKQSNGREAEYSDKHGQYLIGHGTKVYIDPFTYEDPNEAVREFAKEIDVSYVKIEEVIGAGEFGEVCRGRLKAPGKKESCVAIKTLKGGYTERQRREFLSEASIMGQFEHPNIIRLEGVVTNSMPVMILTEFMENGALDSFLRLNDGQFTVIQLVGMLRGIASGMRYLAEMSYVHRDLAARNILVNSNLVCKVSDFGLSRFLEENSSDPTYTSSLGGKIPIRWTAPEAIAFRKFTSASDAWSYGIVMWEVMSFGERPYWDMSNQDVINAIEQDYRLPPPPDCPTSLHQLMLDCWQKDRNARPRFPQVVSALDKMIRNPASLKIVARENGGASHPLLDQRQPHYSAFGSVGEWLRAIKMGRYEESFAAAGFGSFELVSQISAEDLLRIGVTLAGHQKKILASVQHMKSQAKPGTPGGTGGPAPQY
Sequence of Serine/threonine-protein kinase Nek7 (Homo sapiens) (Q8TDX7 whole entry, looked up): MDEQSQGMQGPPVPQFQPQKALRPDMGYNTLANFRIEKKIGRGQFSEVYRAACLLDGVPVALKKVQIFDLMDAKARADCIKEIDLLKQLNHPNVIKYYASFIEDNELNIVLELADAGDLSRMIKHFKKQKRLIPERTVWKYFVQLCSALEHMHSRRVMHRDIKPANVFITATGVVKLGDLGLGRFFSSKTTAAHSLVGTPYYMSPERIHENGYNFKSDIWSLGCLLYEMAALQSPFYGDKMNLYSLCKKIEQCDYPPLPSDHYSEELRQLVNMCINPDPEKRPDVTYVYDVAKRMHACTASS

Regarding `C=CC(=O)Nc1ccc(C(=O)Nc2[nH]nc3c2CN(C(=O)N[C@H](CN(C)C)c2ccccc2)C3(C)C)cc1`, the % of engagement in assay [1] (Selectivity number of off-targets 0.0, Selectivity number of targets 233.0, Source Knowledge https://www.sciencedirect.com/science/article/pii/S2451945619300674?via%3Dihub) is -7.9%; in [1] it was -8.1%. In the case of `Cc1cc([C@@H](C)Nc2ccccc2C(=O)O)c2nc(N3CCOCC3)cc(=O)n2c1` [AZD-6482], the % of control in assay [2] came out at 85%. `O=C(NOC[C@H](O)CO)c1ccc(F)c(F)c1Nc1ccc(I)cc1F` showed a % of control in [3] of 100%. `CC(C)(O)[C@H](F)CN1Cc2cc(NC(=O)c3cnn4cccnc34)c(N3CCOCC3)cc2C1=O`: the dTM in assay [4] is -0.2 K. As for `COc1cc(N(C)c2ccnc3ccc(C(F)(F)F)cc23)cc(OC)c1OC`, in assay [5], the % binding came out at 100%. As to `N#Cc1cccc(-c2c[nH]c3ncnc(N4CCOCC4)c23)c1`, the % of inhibition in [6] came to 7%; in assay [7] it was 6%. As to `CCC(=O)N1CC[C@H](Nc2ncnc3c2CN(c2cnc(OC)c(C(F)(F)F)c2)CC3)C1` [LENIOLISIB], in assay [8], the IC50 is > 10 µM. On to `CC[C@@H]1[C@H](F)C(=O)N[C@@H]1COc1nccc2cc(C(N)=O)c(OC)cc12` [ZIMLOVISERTIB], for which the % of inhibition in assay [9] came to 4.03%.

For the compound `CCN(CC)CCCCNc1ncc2cc(-c3cc(OC)cc(OC)c3)c(NC(=O)NC(C)(C)C)nc2n1`, the % of control in assay [10] was 100%. In [11], `CC(=O)c1cc(-c2ccccc2OCC2CC2)c2ncccn12` registered a % of control of 108%.

As to `Cc1cc(C)cc([C@H]2c3cc(C)ccc3NC(=O)CN2C(=O)c2ccc(Br)s2)c1`, the % of activity in assay [12] (at 1 µM) turned out to be 98.7%; in [12] (at 10 µM), 99%.

What is called IC50 is the concentration that inhibits the measured activity by half.
